Patent publication US10689344B2, “Biphenylamide derivative Hsp90 inhibitors” (University of Kansas, priority 2013, dated 2020)

Tests used:
[1] = system: MCF-7 (estrogen receptor positive breast cancer cells); assay: Anti-proliferation assay (MTS/PMS, 72 h), MCF-7; assay type: cell-based; conditions: Homo sapiens
Experimental: (§1) Cells were maintained in a 1:1 mixture of Advanced DMEM/F12 (Gibco) supplemented with non-essential amino acids, L-glutamine (2 mM), streptomycin (500 μg/mL), penicillin (100 units/mL), and 10% FBS. Cells were grown to confluence in a humidified atmosphere (37° C., 5% CO2), seeded (2000/well, 100 μL) in 96-well plates, and allowed to attach overnight. Compound at varying concentrations in DMSO (1% DMSO final concentration) was added, and cells were returned to the incubator for 72 h. At 72 h, the number of viable cells was determined using an MTS/PMS cell proliferation kit (Promega) per the manufacturer's instructions. Cells incubated in 1% DMSO were used at 100% proliferation, and values were adjusted accordingly. IC50 values were calculated from separate experiments performed in triplicate using GraphPad Prism.
(§2) Anti-proliferative studies with the compounds described herein were performed against the SKBr3 (estrogen receptor negative, HER2 over-expressing breast cancer cells) and MCF-7 (estrogen receptor positive breast cancer cells) breast cancer cell lines. […] In some embodiments, in contrast to the novobiocin derivatives, which usually manifest better anti-proliferative activities against the SKBr3 cell line, the biphenyl derivatives described herein were more efficacious against the MCF-7 cell line. In general, all substitutions on the phenyl ring were determined to be beneficial, consistent with the existence of a hydrophobic pocket in this region of the Hsp90 C-terminal binding site.

[2] = system: SKBr3 (estrogen receptor negative, HER2 over-expressing breast cancer cells); assay: Anti-proliferation assay (MTS/PMS, 72 h), SKBr3; assay type: cell-based; conditions: Homo sapiens
Experimental: as §1, §2

[3] = MCF7, Table 3, substituted para-para biphenyl core
[4] = SK-BR-3, Table 3, substituted para-para biphenyl core
[5] = MCF7, Table 6, para-para biphenyl core with substituted benzylamide
[6] = SK-BR-3, Table 6, para-para biphenyl core with substituted benzylamide
[7] = MCF7, Table 1, ortho, meta and para biphenyl cores
[8] = SK-BR-3, Table 1, ortho, meta and para biphenyl cores
[9] = MCF7, Table 8, para-para biphenyl core with substituted biphenylamide group
[10] = SK-BR-3, Table 8, para-para biphenyl core with substituted biphenylamide group

SMILES | IC50 [1, 5] [µM] | IC50 [2, 6] [µM] | also measured
COc1cccc(-c2cc(C(=O)Nc3ccc(-c4ccc(OC5CCN(C)CC5)cc4)c(N)c3)ccc2OC)c1 [Compound 38c, N-(2-amino-4′-((1-methylpiperidin-4-yl)oxy)-[1,1′-biphenyl]-4-yl)-3′,6-dimethoxy-[1,1′-biphenyl]-3-carboxamide] |  |  | IC50 [1, 3]: 2.07 ± 0.23 µM; IC50 [2, 4]: 3.9 ± 0.18 µM
COc1cccc(-c2cc(C(=O)Nc3ccc(-c4ccc(OC5CCN(C)CC5)cc4)cc3N)ccc2OC)c1 [Compound 38d, N-(3-amino-4′-((1-methylpiperidin-4-yl)oxy)-[1,1′-biphenyl]-4-yl)-3′,6-dimethoxy-[1,1′-biphenyl]-3-carboxamide] |  |  | IC50 [1, 3]: 2.25 ± 0.49 µM; IC50 [2, 4]: 3.21 ± 0.45 µM
COc1cccc(-c2cc(C(=O)Nc3ccc(-c4ccc(OC5CCN(C)CC5)c(NC(C)=O)c4)cc3)ccc2OC)c1 [Compound 39a, N-(3′-acetamido-4′-((1-methylpiperidin-4-yl)oxy)-[1,1′-biphenyl]-4-yl)-3′,6-dimethoxy-[1,1′-biphenyl]-3-carboxamide] |  |  | IC50 [1, 3]: 1.84 ± 0.43 µM; IC50 [2, 4]: 2.66 ± 0.76 µM
COc1cccc(-c2cc(C(=O)Nc3ccc(-c4ccc(OC5CCN(C)CC5)cc4NC(C)=O)cc3)ccc2OC)c1 [Compound 39b, N-(2′-acetamido-4′-((1-methylpiperidin-4-yl)oxy)-[1,1′-biphenyl]-4-yl)-3′,6-dimethoxy-[1,1′-biphenyl]-3-carboxamide] |  |  | IC50 [1, 3]: 1.36 ± 0.23 µM; IC50 [2, 4]: 3.39 ± 0.66 µM
COc1cccc(-c2cc(C(=O)Nc3ccc(-c4ccc(OC5CCN(C)CC5)cc4)c(NC(C)=O)c3)ccc2OC)c1 [Compound 39c, N-(2-acetamido-4′-((1-methylpiperidin-4-yl)oxy)-[1,1′-biphenyl]-4-yl)-3′,6-dimethoxy-[1,1′-biphenyl]-3-carboxamide] |  |  | IC50 [1, 3]: 4.66 ± 0.49 µM; IC50 [2, 4]: 2.52 ± 0.26 µM
COc1cccc(-c2cc(C(=O)Nc3ccc(-c4ccc(OC5CCN(C)CC5)cc4)cc3NC(C)=O)ccc2OC)c1 [Compound 39d, N-(3-acetamido-4′-((1-methylpiperidin-4-yl)oxy)-[1,1′-biphenyl]-4-yl)-3′,6-dimethoxy-[1,1′-biphenyl]-3-carboxamide] |  |  | IC50 [1, 3]: 1.66 ± 0.59 µM; IC50 [2, 4]: 3.51 ± 0.56 µM
CN1CCC(Oc2ccc(-c3ccc(NC(=O)c4ccccc4)cc3)cc2)CC1 [Compound 41a, N-(4′-((1-methylpiperidin-4-yl)oxy)-[1,1′-biphenyl]-4-yl)benzamide] | 3.95 ± 0.13 | 4.13 ± 0.22 | 
CN1CCC(Oc2ccc(-c3ccc(NC(=O)c4cccc(Cl)c4)cc3)cc2)CC1 [Compound 41h, 3-chloro-N-(4′-((1-methylpiperidin-4-yl)oxy)-[1,1′-biphenyl]-4-yl)benzamide] | 2.83 ± 0.69 | 1.94 ± 0.37 | 
COc1cccc(C(=O)Nc2ccc(-c3ccc(OC4CCN(C)CC4)cc3)cc2)c1 [Compound 41i, 3-methoxy-N-(4′-((1-methylpiperidin-4-yl)oxy)-[1,1′-biphenyl]-4-yl)benzamide] | 5.31 ± 0.7 | 2.87 ± 0.51 | 
Cc1ccc(C(=O)Nc2ccc(-c3ccc(OC4CCN(C)CC4)cc3)cc2)cc1Cl [Compound 41k, 3-chloro-4-methyl-N-(4′-((1-methylpiperidin-4-yl)oxy)-[1,1′-biphenyl]-4-yl)benzamide] | 2.28 ± 0.49 | 1.96 ± 0.24 | 
Cc1ccc(C(=O)Nc2ccc(-c3ccc(OC4CCN(C)CC4)cc3)cc2)cc1Br [Compound 41l, 3-bromo-4-methyl-N-(4′-((1-methylpiperidin-4-yl)oxy)-[1,1′-biphenyl]-4-yl)benzamide] | 3.35 ± 0.36 | 2.8 ± 0.18 | 
CN1CCC(Oc2ccc(-c3ccc(NC(=O)c4ccc(Cl)c(Cl)c4)cc3)cc2)CC1 [Compound 41n, 3,4-dichloro-N-(4′-((1-methylpiperidin-4-yl)oxy)-[1,1′-biphenyl]-4-yl)benzamide] | 1.6 ± 0.16 | 1.2 ± 0.08 | 
CN1CCC(Oc2ccc(-c3ccc(NC(=O)c4cc(Cl)cc(Cl)c4)cc3)cc2)CC1 [Compound 41o, 3,5-dichloro-N-(4′-((1-methylpiperidin-4-yl)oxy)-[1,1′-biphenyl]-4-yl)benzamide] | 1.68 ± 0.13 | 0.81 ± 0.28 | 
CN1CCC(Oc2ccc(-c3ccc(NC(=O)c4ccc(Cl)cc4Cl)cc3)cc2)CC1 [Compound 41p, 2,4-dichloro-N-(4′-((1-methylpiperidin-4-yl)oxy)-[1,1′-biphenyl]-4-yl)benzamide] | 1.37 ± 0.33 | 0.8 ± 0.22 | 
CN1CCC(Oc2ccc(-c3ccc(NC(=O)c4ccccc4-c4ccccc4)cc3)cc2)CC1 [Compound 41q, N-(4′-((1-methylpiperidin-4-yl)oxy)-[1,1′-biphenyl]-4-yl)-[1,1′-biphenyl]-2-carboxamide] | 6.67 ± 0.83 | 6.26 ± 1.54 | 
CN1CCC(Oc2ccc(-c3ccc(NC(=O)c4ccc(-c5ccccc5)cc4)cc3)cc2)CC1 [Compound 41s, N-(4′-((1-methylpiperidin-4-yl)oxy)-[1,1′-biphenyl]-4-yl)-[1,1′-biphenyl]-4-carboxamide] | 4.44 ± 0.6 | 4.59 ± 0.06 | 
CN1CCC(Oc2ccc(-c3ccc(NC(=O)c4ccc5ncccc5c4)cc3)cc2)CC1 [Compound 45b, N-(4′-((1-methylpiperidin-4-yl)oxy)-[1,1′-biphenyl]-4-yl)quinoline-6-carboxamide] | 2.07 ± 0.16 | 1.31 ± 0.18 | 
CN1CCC(Oc2ccc(-c3ccc(NC(=O)c4cc5ccccc5s4)cc3)cc2)CC1 [Compound 47b, N-(4′-((1-methylpiperidin-4-yl)oxy)-[1,1′-biphenyl]-4-yl)benzo[b]thiophene-2-carboxamide] | 2.01 ± 0.58 | 1.32 ± 0.23 | 
COc1ccc(C(=O)Nc2ccc(-c3ccc(OC4CCN(C)CC4)cc3)cc2)cc1-c1ccccc1 [Compound 49a, 6-methoxy-N-(4′-((1-methylpiperidin-4-yl)oxy)-[1,1′-biphenyl]-4-yl)-[1,1′-biphenyl]-3-carboxamide] |  |  | IC50 [1, 9]: 0.84 ± 0.01 µM; IC50 [2, 10]: 0.51 ± 0.11 µM

Continued, in another order:

IC50 [1, 5] [µM] | IC50 [2, 6] [µM] | SMILES | also measured
0.52 ± 0.03 | 0.57 ± 0.01 | CN1CCC(Oc2ccc(-c3ccc(NC(=O)c4ccc(Cl)cc4)cc3)cc2)CC1 [Compound 41b, 4-chloro-N-(4′-((1-methylpiperidin-4-yl)oxy)-[1,1′-biphenyl]-4-yl)benzamide] | IC50 [1, 7]: 0.52 ± 0.03 µM; IC50 [2, 8]: 0.57 ± 0.01 µM
0.52 ± 0.15 | 0.52 ± 0.21 | CN1CCC(Oc2ccc(-c3ccc(NC(=O)c4ccc(Br)cc4)cc3)cc2)CC1 [Compound 41c, 4-bromo-N-(4′-((1-methylpiperidin-4-yl)oxy)-[1,1′-biphenyl]-4-yl)benzamide] | 
0.58 ± 0.01 | 0.31 ± 0.09 | CN1CCC(Oc2ccc(-c3ccc(NC(=O)c4ccc(I)cc4)cc3)cc2)CC1 [Compound 41d, 4-iodo-N-(4′-((1-methylpiperidin-4-yl)oxy)-[1,1′-biphenyl]-4-yl)benzamide] | 
1.27 ± 0.13 | 0.98 ± 0.19 | Cc1ccc(C(=O)Nc2ccc(-c3ccc(OC4CCN(C)CC4)cc3)cc2)cc1 [Compound 41e, 4-methyl-N-(4′-((1-methylpiperidin-4-yl)oxy)-[1,1′-biphenyl]-4-yl)benzamide] | 
0.65 ± 0.04 | 0.49 ± 0.01 | COc1ccc(C(=O)Nc2ccc(-c3ccc(OC4CCN(C)CC4)cc3)cc2)cc1 [Compound 41f, 4-methoxy-N-(4′-((1-methylpiperidin-4-yl)oxy)-[1,1′-biphenyl]-4-yl)benzamide] | IC50 [1, 7]: 0.65 ± 0.04 µM; IC50 [2, 8]: 0.49 ± 0.01 µM
1.08 ± 0.08 | 1.26 ± 0.37 | CN1CCC(Oc2ccc(-c3ccc(NC(=O)c4ccc(C(C)(C)C)cc4)cc3)cc2)CC1 [Compound 41g, 4-(tert-butyl)-N-(4′-((1-methylpiperidin-4-yl)oxy)-[1,1′-biphenyl]-4-yl)benzamide] | IC50 [1, 7]: 1.08 ± 0.08 µM; IC50 [2, 8]: 1.26 ± 0.37 µM
1.03 ± 0.16 | 1.11 ± 0.42 | Cc1cc(C(=O)Nc2ccc(-c3ccc(OC4CCN(C)CC4)cc3)cc2)ccc1Cl [Compound 41j, 4-chloro-3-methyl-N-(4′-((1-methylpiperidin-4-yl)oxy)-[1,1′-biphenyl]-4-yl)benzamide] | 
1.17 ± 0.2 | 0.93 ± 0.2 | Cc1ccc(C(=O)Nc2ccc(-c3ccc(OC4CCN(C)CC4)cc3)cc2)cc1I [Compound 41m, 3-iodo-4-methyl-N-(4′-((1-methylpiperidin-4-yl)oxy)-[1,1′-biphenyl]-4-yl)benzamide] | 
1.15 ± 0.18 | 0.73 ± 0.07 | CN1CCC(Oc2ccc(-c3ccc(NC(=O)c4cccc(-c5ccccc5)c4)cc3)cc2)CC1 [Compound 41r, N-(4′-((1-methylpiperidin-4-yl)oxy)-[1,1′-biphenyl]-4-yl)-[1,1′-biphenyl]-3-carboxamide] | IC50 [1, 9]: 1.15 ± 0.18 µM; IC50 [2, 10]: 0.73 ± 0.07 µM
0.58 ± 0.02 | 0.64 ± 0.08 | CN1CCC(Oc2ccc(-c3ccc(NC(=O)c4cc5ccccc5[nH]4)cc3)cc2)CC1 [Compound 47a, N-(4′-((1-methylpiperidin-4-yl)oxy)-[1,1′-biphenyl]-4-yl)-1H-indole-2-carboxamide] | 
